This series is described as follows: Batch release QC / patient dose batch data. The format is physicochemical. The following applies: patient dose batches. The method, then:
In another embodiment, the radioactivity is measured in a dose calibrator. The radioactive amount of [^177Lu]Lu-PSMA I&T is determined when the dose is dispensed.
In one embodiment, bacterial endotoxin content is determined for each batch before release using a PTS-tester (Ph Eur method D) and sterility is determined according to Ph Eur.
The specifications listed were used as release parameters except for sterility testing. Sterility was tested on all batches post-release.

Several values for one entry are separate records, joined by “and”; a condition that tells them apart may be missing. Equal values may be shown once.

The results in this text go back to patent publication US20250032651A1, “[177LU] LUTETIUM-PSMA I&T COMPOSITION AND DOSIMETRY, KIT, METHOD OF MAKING, AND METHOD OF USING THEREOF” (Curium US LLC, priority 2022, published 2025).

On to `O=C([O-])CC[C@H](NC(=O)N[C@@H](CCCCNC(=O)CCCCCCC(=O)NCCCC[C@@H](NC(=O)[C@@H](Cc1ccccc1)NC(=O)[C@@H](Cc1ccc(O)c(I)c1)NC(=O)CC[C@H](C(=O)[O-])N1CCN(CC(=O)[O-])CCN(CC(=O)[O-])CCN(CC(=O)[O-])CC1)C(=O)[O-])C(=O)[O-])C(=O)[O-].[177Lu+3].[H+].[H+].[H+].[H+].[H+]` [Lu-177 PSMA I&T], for which the “Measured PSMA Sum” value turned out to be 5.0 µg/mL; the “Theoretical PSMA Sum” value is 5.9 µg/mL and 6.4 µg/mL.
